We go through two compounds from US11192900B2, “Substituted 1,6-dihydropyridinones and 1,2-dihydroisoquinolinones as bet inhibitors” (NUVATION BIO INC., priority 2018, dated 2021).

The IC50 is the midpoint of a concentration-inhibition curve.

The target in one assay is BRD4-1 (Homo sapiens (Human), UniProt O60885). Kind of assay: Bromodomain and Extraterminal Domain (BET) Binding Assay. The note with it: Table 3; read-out: BRD4-1 IC50. The procedure, abridged:
(§1)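 AlphaScreen displacement of biotinylated H4 (1-21) K5/8/12/16Ac peptide, in 50 mM HEPES pH 7.5, 100 mM NaCl, 1 mg/ml BSA, 0.05% CHAPS, 0.5% DMSO. Protein-compound preincubation 30 min RT, then ligand 30 min, donor then acceptor beads 60 min dark. Inhibition versus plate controls; IC50 from 10-point titrations.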

The target of a further assay is BRD4-2 (Homo sapiens (Human), UniProt O60885). The description is as above. The note with it: Table 3; read-out: BRD4-2 IC50. The procedure, abridged:
as §1

The subject of assay [1] is MV-4-11 human acute myeloid leukemia cell line. Kind of assay: Second cell viability assay in MV-4-11 (Cell Titer-Glo). Format: cell-based. The note with it: Homo sapiens; MV4-11, Cell Titer-Glo, 72 hrs; read-out: Cell Viability IC50 in MV4-11 cells. The protocol:
The effects of test compounds were studied in a second cell viability assay in the MV-4-11 human acute myeloid leukemia cell line. The cells were harvested during the logarithmic growth period and counted. Cells were seeded at a count of 15000 cells per well/100 μl. After seeding, cells were incubated at 37° C., 5% CO2 for 1 hr. Cells were treated with test compounds at 8 concentrations within a desired concentration range (e.g. 5 nM-[…]) for generation of dose response curves by preparing serial dilutions of the test compound in DMSO which were further diluted with culture medium and then added to each well. The plate was further incubated for another 72 hrs in a humidified incubator at 37° C. and 5% CO2. The assay was terminated by addition of Cell Titer-Glo reagent (Promega, Madison, Wis.) at ¼ the volume of total medium per well. Contents were mixed, the plate was incubated for 10 min at room temperature and luminescence was measured. Cell viability data were plotted using GraphPad Prism (GraphPad Software, Inc., San Diego, Calif.). In addition, a nonlinear regression model with a sigmoidal dose response and variable slope within GraphPad Prism was used to calculate the IC50 value of individual test compounds.
A general note: In ATP-based viability assays light output follows the ATP content of the culture.

The subject of assay [2] is 22Rv1 human prostate carcinoma cell line. Kind of assay: Cell viability assay (resazurin). It counts as cell-based. The note with it: 22Rv1, resazurin, 72 hrs. The protocol:
The effects of test compounds were also studied in the 22Rv1 human prostate carcinoma and MDA-MB-231 human breast adenocarcinoma cell lines. The cells were harvested during the logarithmic growth period and counted. Cells were seeded at a count of 3000 cells (22Rv1) or 5000 cells (MDA-MB-231) per well/100 μl in a 96-well plate. After seeding, cells were incubated at 37° C., 5% CO2 for 24 hr. Cells were treated with test compounds at 8 concentrations within a desired concentration range (e.g. 5 nM-10 μM) for generation of dose response curves by preparing serial dilutions of the test compound in DMSO which were further diluted with culture medium and then added to each well. The plate was further incubated for another 72 hrs (22Rv1) or 96 hrs (MDA-MB-231) in humidified incubator at 37° C. and 5% CO2. The assay was terminated by addition of resazurin (# R7017, Sigma). The plate was incubated for 4 hr at 37° C., 5% CO2 and fluorescence was measured using excitation and emission wavelengths of 535 and 590 nm, respectively. Cell viability data were plotted using GraphPad Prism (GraphPad Software, Inc., San Diego, Calif.). In addition, a nonlinear regression model with a sigmoidal dose response and variable slope within GraphPad Prism was used to calculate the IC50 value of individual test compounds.
In general terms: Alamar Blue is a resazurin reagent that responds to reducing activity.

Assay [3] has as its system IEC-6 rat intestinal epithelial cell line. Kind of assay: IEC-6 cell viability, Protocol B (toxicity to non-cancerous cells). Format: cell-based. The note with it: Rattus norvegicus; IEC-6, 4000 cells per well, 48 hrs. The protocol: The effects of test compounds were also studied in the IEC-6 rat intestinal epithelial cell line to assess potential toxicity to non-cancerous cells. The cells were harvested during the logarithmic growth period and counted. In Protocol A, cells were seeded at a count of 3000 cells per well/100 μl in a 96-well plate. After seeding, cells were incubated at 37° C., 5% CO2 for 24 hr. Cells were treated with test compounds at 8 concentrations within a desired concentration range (e.g. 5 nM-10 μM) for generation of dose response curves by preparing serial dilutions of the test compound in DMSO which were further diluted with culture medium and then added to each well. The plate was further incubated for another 96 hrs in humidified incubator at 37° C. and 5% CO2. The assay was terminated by addition of resazurin (# R7017, Sigma). The plate was incubated for 4 hr at 37° C., 5% CO2 and fluorescence was measured using excitation and emission wavelengths of 535 and 590 nm, respectively. Cell viability data were plotted using GraphPad Prism (GraphPad Software, Inc., San Diego, Calif.). In addition, a nonlinear regression model with a sigmoidal dose response and variable slope within GraphPad Prism was used to calculate the IC50 value of individual test compounds. Protocol B was the same as Protocol A except that cells were seeded at a count of 4000 cells per well/100 μl in a 96-well plate, and the incubation with test compound was for 48 hrs instead of 96 hrs.

Take `CCS(=O)(=O)Nc1ccc(Oc2c(C)cc(F)cc2C)c(-n2cc(C)c(=O)c3ccccc32)c1` [Compound 570, N-(4-(4-fluoro-2,6-dimethylphenoxy)-3-(3-methyl-4-oxoquinolin-1(4H)-yl)phenyl)ethanesulfonamide]: the half-maximal inhibitory concentration (IC50) is 1.37 µM at BRD4-1; 0.011 µM on BRD4-2; 0.526 µM in assay [1]; 1.27 µM in assay [2]; 2.86 µM in assay [3].
As for `CC(=O)Nc1ccc(Oc2c(C)cc(F)cc2C)c(-n2cc(C)c(=O)c3ccccc32)c1` [Compound 710, N-(4-(4-fluoro-2,6-dimethylphenoxy)-3-(3-methyl-4-oxoquinolin-1(4H)-yl)phenyl)acetamide], the concentration for half-maximal inhibition (IC50) on BRD4-1 is 8.15 µM; on BRD4-2 it was 0.292 µM; in assay [1] it was 2.46 µM; in assay [2] it was 6.66 µM; in assay [3], 7.55 µM.
